Experimental data: ChEMBL document CHEMBL1157216, “A common protein fold topology shared by flavonoid biosynthetic enzymes and therapeutic targets” (J Nat Prod, 2006)
≈ marks a conversion by molar mass, not a printed value.

Legend:
[1] = Inhibition of PKC
[2] = Inhibition of thymocyte protein tyrosine kinase
[3] = Inhibition of FGFR
[4] = Inhibition of PI3K
[5] = target: Epidermal growth factor receptor (Homo sapiens, UniProt P00533); assay: Inhibition of EGFR
[6] = target: Proto-oncogene tyrosine-protein kinase Src (Homo sapiens, UniProt P12931); assay: Inhibition of c-Src
[7] = target: Cyclin-dependent kinase 6 (Homo sapiens, UniProt Q00534); assay: Inhibition of CDK6
[8] = Inhibition of CK2
[9] = target: Myosin light chain kinase, smooth muscle (Homo sapiens, UniProt Q15746); assay: Inhibition of MLCK
[10] = Inhibition of CK1
[11] = Inhibition of PKA
[12] = Inhibition of CaM kinase
[13] = Inhibition of Rous sarcoma virus SRC
[14] = Inhibition of PKD

Epidermal growth factor receptor, sequence (P00533 whole entry): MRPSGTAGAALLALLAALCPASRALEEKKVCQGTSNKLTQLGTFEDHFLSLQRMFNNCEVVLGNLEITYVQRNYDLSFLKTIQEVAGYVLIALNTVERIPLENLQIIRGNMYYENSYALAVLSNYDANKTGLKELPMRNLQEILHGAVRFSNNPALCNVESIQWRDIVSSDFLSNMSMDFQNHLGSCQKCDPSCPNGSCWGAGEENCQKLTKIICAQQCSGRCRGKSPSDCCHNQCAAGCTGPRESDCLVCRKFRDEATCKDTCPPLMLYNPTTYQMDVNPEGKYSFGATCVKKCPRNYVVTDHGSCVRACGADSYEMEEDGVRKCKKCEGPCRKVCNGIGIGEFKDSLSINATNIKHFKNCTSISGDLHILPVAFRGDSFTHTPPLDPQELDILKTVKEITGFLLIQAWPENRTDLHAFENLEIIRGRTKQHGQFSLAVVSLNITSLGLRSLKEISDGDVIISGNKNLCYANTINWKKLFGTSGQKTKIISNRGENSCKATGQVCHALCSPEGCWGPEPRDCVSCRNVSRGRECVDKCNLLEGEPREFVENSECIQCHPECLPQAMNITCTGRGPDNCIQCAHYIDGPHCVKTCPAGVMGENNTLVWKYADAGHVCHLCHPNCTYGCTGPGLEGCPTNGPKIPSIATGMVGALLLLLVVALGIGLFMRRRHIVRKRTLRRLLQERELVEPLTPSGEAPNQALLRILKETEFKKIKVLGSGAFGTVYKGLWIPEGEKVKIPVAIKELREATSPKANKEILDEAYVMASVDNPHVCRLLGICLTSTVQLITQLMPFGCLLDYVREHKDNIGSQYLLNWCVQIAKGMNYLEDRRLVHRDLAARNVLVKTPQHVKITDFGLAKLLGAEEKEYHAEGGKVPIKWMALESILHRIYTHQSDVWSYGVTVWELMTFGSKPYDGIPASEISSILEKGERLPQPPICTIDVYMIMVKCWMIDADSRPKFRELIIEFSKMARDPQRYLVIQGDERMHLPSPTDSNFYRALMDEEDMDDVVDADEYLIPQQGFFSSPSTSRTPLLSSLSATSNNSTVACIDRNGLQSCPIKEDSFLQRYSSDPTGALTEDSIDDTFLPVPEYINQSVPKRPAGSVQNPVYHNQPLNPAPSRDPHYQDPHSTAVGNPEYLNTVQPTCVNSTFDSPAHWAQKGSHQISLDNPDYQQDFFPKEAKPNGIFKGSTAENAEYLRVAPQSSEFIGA
Myosin light chain kinase, smooth muscle, sequence (Q15746 whole entry): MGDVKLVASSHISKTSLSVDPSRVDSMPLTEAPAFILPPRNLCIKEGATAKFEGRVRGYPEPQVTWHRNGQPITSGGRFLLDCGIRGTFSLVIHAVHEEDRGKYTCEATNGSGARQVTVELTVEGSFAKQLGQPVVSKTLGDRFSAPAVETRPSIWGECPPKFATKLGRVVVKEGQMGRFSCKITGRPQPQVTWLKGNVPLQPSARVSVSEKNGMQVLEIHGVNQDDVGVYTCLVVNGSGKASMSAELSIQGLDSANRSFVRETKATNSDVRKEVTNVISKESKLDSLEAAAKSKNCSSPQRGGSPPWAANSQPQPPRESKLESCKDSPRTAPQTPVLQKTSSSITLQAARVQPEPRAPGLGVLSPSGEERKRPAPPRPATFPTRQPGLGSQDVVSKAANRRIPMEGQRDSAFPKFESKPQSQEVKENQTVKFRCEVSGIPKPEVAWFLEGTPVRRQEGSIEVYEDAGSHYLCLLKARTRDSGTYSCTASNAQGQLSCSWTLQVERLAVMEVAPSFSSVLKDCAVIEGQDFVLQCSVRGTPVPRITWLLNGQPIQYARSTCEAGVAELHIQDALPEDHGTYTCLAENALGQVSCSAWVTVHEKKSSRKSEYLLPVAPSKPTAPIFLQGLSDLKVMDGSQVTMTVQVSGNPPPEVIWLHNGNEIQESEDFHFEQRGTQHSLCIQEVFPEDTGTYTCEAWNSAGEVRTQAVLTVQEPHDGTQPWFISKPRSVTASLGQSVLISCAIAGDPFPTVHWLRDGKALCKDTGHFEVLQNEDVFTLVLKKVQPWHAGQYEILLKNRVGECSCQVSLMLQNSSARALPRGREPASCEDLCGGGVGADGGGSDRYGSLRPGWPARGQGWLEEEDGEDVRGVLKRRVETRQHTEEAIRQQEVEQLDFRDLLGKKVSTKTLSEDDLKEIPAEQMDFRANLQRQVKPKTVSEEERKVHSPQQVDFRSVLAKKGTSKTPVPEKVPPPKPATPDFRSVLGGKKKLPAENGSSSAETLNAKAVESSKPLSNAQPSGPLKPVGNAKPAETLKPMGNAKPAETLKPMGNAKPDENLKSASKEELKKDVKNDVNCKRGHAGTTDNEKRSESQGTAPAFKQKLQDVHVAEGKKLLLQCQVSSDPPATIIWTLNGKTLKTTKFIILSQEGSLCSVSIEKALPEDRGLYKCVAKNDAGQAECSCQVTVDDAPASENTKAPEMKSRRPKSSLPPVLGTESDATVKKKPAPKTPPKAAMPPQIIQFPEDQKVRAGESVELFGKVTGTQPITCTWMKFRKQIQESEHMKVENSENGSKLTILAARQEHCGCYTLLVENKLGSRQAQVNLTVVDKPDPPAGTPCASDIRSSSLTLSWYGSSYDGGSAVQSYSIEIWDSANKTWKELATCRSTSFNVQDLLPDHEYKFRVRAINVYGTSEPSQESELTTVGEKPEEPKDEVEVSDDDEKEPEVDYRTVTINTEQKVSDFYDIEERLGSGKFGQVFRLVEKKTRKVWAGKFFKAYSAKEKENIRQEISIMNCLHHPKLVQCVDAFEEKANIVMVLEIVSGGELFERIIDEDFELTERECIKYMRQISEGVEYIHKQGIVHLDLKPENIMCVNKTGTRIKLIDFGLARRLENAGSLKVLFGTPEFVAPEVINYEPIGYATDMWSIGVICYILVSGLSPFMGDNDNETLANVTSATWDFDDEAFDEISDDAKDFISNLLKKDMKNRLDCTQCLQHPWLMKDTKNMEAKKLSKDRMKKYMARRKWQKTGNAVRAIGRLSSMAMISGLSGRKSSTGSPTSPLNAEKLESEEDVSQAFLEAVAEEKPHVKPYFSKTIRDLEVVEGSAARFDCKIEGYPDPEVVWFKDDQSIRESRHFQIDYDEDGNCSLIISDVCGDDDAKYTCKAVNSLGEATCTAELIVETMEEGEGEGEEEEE
Proto-oncogene tyrosine-protein kinase Src, sequence (P12931 2-536 limits assumed): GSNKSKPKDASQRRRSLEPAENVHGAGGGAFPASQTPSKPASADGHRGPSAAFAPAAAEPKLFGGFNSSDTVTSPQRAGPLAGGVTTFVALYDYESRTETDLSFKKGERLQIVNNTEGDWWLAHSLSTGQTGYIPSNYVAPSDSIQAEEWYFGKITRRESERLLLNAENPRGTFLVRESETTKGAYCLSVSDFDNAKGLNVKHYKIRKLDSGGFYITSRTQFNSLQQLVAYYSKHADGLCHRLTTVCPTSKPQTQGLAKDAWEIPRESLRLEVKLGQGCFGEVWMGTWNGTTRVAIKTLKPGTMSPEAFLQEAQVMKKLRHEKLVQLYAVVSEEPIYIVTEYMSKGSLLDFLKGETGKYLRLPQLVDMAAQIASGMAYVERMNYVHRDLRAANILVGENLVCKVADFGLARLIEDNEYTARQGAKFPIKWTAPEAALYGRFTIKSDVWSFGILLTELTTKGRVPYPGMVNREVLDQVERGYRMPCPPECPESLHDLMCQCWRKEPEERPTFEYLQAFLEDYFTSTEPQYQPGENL
Cyclin-dependent kinase 6, sequence (Q00534 whole entry): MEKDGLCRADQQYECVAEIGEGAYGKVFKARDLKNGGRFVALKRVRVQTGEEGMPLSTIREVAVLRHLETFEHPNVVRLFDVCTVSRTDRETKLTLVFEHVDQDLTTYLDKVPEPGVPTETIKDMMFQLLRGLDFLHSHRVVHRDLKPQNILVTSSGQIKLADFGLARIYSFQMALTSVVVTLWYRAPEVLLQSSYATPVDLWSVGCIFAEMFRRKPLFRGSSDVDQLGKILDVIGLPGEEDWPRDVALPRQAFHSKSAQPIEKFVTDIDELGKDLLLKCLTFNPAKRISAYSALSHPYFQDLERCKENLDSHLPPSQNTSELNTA

## O=c1cc(-c2ccc(O)cc2)oc2cc(O)cc(O)c12 [APIGENIN]
[1]
  IC50: 10 µM
[2]
  ID50: 90 µg/mL (≈ 333 µM)
[3]
  IC50: 20 µM
[4]
  IC50: 12 µM

## O=C(/C=C/c1ccc(O)c(O)c1)c1ccc(O)cc1O [BUTEIN]
[5]
  IC50: 8 µM
[6]
  IC50: 65 µM

## O=C1c2ccccc2-[n+]2ccc3c([nH]c4ccccc43)c21 [FASCAPLYSIN CHLORIDE]
[7]
  IC50: 3.4 µM

## O=c1c(O)c(-c2ccc(O)c(O)c2)oc2cc(O)ccc12 [FISETIN]
[2]
  IC50: 35 µM
[8]
  IC50: 0.35 µM
[4]
  IC50: 10 µM

## O=c1cc(-c2ccc(O)c(O)c2)oc2cc(O)cc(O)c12 [LUTEOLIN]
[4]
  IC50: 8 µM

## O=c1c(O)c(-c2cc(O)c(O)c(O)c2)oc2cc(O)cc(O)c12 [MYRICETIN]
[1]
  Ki: 12.1 µM
[8]
  IC50: 0.92 µM
  Ki: 0.6 µM
[4]
  IC50: 1.8 µM
  Kd: 0.17 µM
[9]
  Ki: 1.7 µM
[10]
  Ki: 9 µM
[11]
  Ki: 27.5 µM

## Oc1cc(O)cc(/C=C/c2ccc(O)c(O)c2)c1 [PICEATANNOL]
[1]
  IC50: 8 µM
[2]
  Ki: 15 µM
[9]
  IC50: 12 µM
[11]
  IC50: 3 µM
[12]
  IC50: 19 µM

## O=c1c(O)c(-c2ccc(O)c(O)c2)oc2cc(O)cc(O)c12 [QUERCETIN]
[2]
  ID50: 11 µg/mL (≈ 36.4 µM)
[4]
  IC50: 3.8 µM
  Kd: 0.28 µM
[13]
  Ki: 6 µM

## Oc1ccc(/C=C/c2cc(O)cc(O)c2)cc1 [RESVERATROL]
[1]
  IC50: 90 µM
  Ki: 55 µM
[8]
  IC50: 10 µM
  Ki: 1.2 µM
[14]
  IC50: 200 µM

## COc1c(O)cc2occ(-c3ccc(O)cc3)c(=O)c2c1O [TECTORIGENIN]
[5]
  IC50: 3.3 µM
